Test results as given in the CheMixHub ionic liquid set.

Assay: xn = mol fraction of the nth substance listed

O=P([O-])([O-])O.[Na+].[Na+] + CCCCCCCCCCCC[N+](C)(C)C.[Br-] + O
298.15 K, 101 kPa
Settings | electrical conductivity [S/m]
x2 = 0, x1 = 0.0001802 | 0.1834
x2 = 0, x1 = 0.001799 | 1.203
x2 = 3.43e-06, x1 = 0.0001802 | 0.1849
x2 = 4.01e-06, x1 = 0.001799 | 1.201
x2 = 7.22e-06, x1 = 0.0001802 | 0.1863
x2 = 1.095e-05, x1 = 0.001799 | 1.202
x2 = 1.245e-05, x1 = 0.0001802 | 0.1888
x2 = 1.967e-05, x1 = 0.0001802 | 0.1919
x2 = 2.007e-05, x1 = 0.001799 | 1.204
x2 = 2.851e-05, x1 = 0.0001802 | 0.1958
x2 = 2.882e-05, x1 = 0.001799 | 1.205
x2 = 3.717e-05, x1 = 0.0001802 | 0.1997
x2 = 4.214e-05, x1 = 0.001799 | 1.207
x2 = 4.619e-05, x1 = 0.0001802 | 0.2038
x2 = 5.521e-05, x1 = 0.0001802 | 0.2079
x2 = 5.582e-05, x1 = 0.001799 | 1.209
x2 = 6.423e-05, x1 = 0.0001802 | 0.212
x2 = 6.895e-05, x1 = 0.001799 | 1.212
x2 = 7.307e-05, x1 = 0.0001801 | 0.2161
x2 = 8.173e-05, x1 = 0.0001801 | 0.2201
x2 = 8.209e-05, x1 = 0.001799 | 1.215
x2 = 9.056e-05, x1 = 0.0001801 | 0.224
x2 = 9.522e-05, x1 = 0.001799 | 1.218
x2 = 9.922e-05, x1 = 0.0001801 | 0.2279
x2 = 0.0001077, x1 = 0.0001801 | 0.2317
x2 = 0.0001087, x1 = 0.001799 | 1.221
x2 = 0.0001165, x1 = 0.0001801 | 0.2356
x2 = 0.0001218, x1 = 0.001799 | 1.224
x2 = 0.000125, x1 = 0.0001801 | 0.2393
x2 = 0.0001335, x1 = 0.0001801 | 0.243
x2 = 0.0001366, x1 = 0.001799 | 1.228
x2 = 0.0001441, x1 = 0.0001801 | 0.2473
x2 = 0.0001519, x1 = 0.001798 | 1.232
x2 = 0.0001524, x1 = 0.0001801 | 0.2509
x2 = 0.0001609, x1 = 0.0001801 | 0.2547
x2 = 0.0001667, x1 = 0.001798 | 1.236
x2 = 0.0001694, x1 = 0.0001801 | 0.2586
x2 = 0.0001777, x1 = 0.0001801 | 0.2624
x2 = 0.0001813, x1 = 0.001798 | 1.24
x2 = 0.0001858, x1 = 0.0001801 | 0.2662
x2 = 0.0001937, x1 = 0.0001801 | 0.2697
x2 = 0.0001963, x1 = 0.001798 | 1.243
x2 = 0.0002019, x1 = 0.0001801 | 0.2733
x2 = 0.0002103, x1 = 0.0001801 | 0.2774
x2 = 0.0002105, x1 = 0.001798 | 1.246
x2 = 0.0002184, x1 = 0.0001801 | 0.2809
x2 = 0.0002245, x1 = 0.001798 | 1.249
x2 = 0.000226, x1 = 0.0001801 | 0.2841
x2 = 0.0002339, x1 = 0.0001801 | 0.2867
x2 = 0.0002387, x1 = 0.001798 | 1.252
x2 = 0.0002421, x1 = 0.0001801 | 0.2888
x2 = 0.0002516, x1 = 0.0001801 | 0.2909
x2 = 0.0002524, x1 = 0.001798 | 1.254
x2 = 0.0002625, x1 = 0.0001801 | 0.2928
x2 = 0.0002663, x1 = 0.001798 | 1.257
x2 = 0.0002743, x1 = 0.0001801 | 0.2947
x2 = 0.0002801, x1 = 0.001798 | 1.259
x2 = 0.0002882, x1 = 0.0001801 | 0.2967
x2 = 0.0002936, x1 = 0.001798 | 1.262
x2 = 0.0003037, x1 = 0.0001801 | 0.2989
x2 = 0.0003071, x1 = 0.001798 | 1.265
x2 = 0.0003189, x1 = 0.0001801 | 0.3011
x2 = 0.0003202, x1 = 0.001798 | 1.268
x2 = 0.0003294, x1 = 0.001798 | 1.27
x2 = 0.0003301, x1 = 0.0001801 | 0.3025

COC(=O)OC + CCCCCCCC[N+](C)(CCCCCCCC)CCCCCCCC.[Cl-]
101 kPa, x1 = 1
Settings | electrical conductivity [S/m] | viscosity [mPa·s]
298.15 K | 5.2e-05 | 0.58
303.15 K | 5.5e-05 | –
308.15 K | 4.9e-05 | –
313.15 K | 5.5e-05 | 0.45
318.15 K | 5.2e-05 | 0.4

Cc1ccccc1 + CCCCCCCC[n+]1ccc2ccccc2c1.O=S(=O)([N-]S(=O)(=O)C(F)(F)F)C(F)(F)F
Settings | viscosity [mPa·s]
308.15 K, 101 kPa, x1 = 1 | 0.5

c1ccsc1 + CCCCCCCC[n+]1ccc2ccccc2c1.O=S(=O)([N-]S(=O)(=O)C(F)(F)F)C(F)(F)F
Settings | viscosity [mPa·s]
348.15 K, 101 kPa, x1 = 1 | 0.34

CCCCCCCCn1cc[n+](C)c1.[Cl-] + CCCCCCCCn1cc[n+](C)c1.F[B-](F)(F)F
101 kPa, x1 = 1
Settings | electrical conductivity [S/m] | viscosity [mPa·s]
303 K | 0.00213 | –
308 K | 0.00353 | –
313 K | 0.00562 | –
318 K | 0.00861 | –
328.15 K | – | 1367

Cc1ccccc1 + CCCCCC[N+]1(C)CCCC1.O=S(=O)([N-]S(=O)(=O)C(F)(F)F)C(F)(F)F
Settings | viscosity [mPa·s]
308.15 K, 100 kPa, x1 = 1 | 0.509
